# Data reported in BindingDB's records for doi:10.1021/jm030040o (Schering-Plough Research Institute, 2003).
# Target: Genome polyprotein (Hepatitis C virus)
# Test: Binding constant against hepatitis C virus (HCV) protease
row,Structure (SMILES),Ki [nM]
1,CC[C@H](C)[C@H](NC(=O)[C@H](CC(C)C)NC(=O)[C@@H](CCC(=O)O)NC(=O)[C@H](CC(=O)O)NC(C)=O)C(=O)N[C@@H](CC1CCCCC1)C(=O)N[C@@H](CCS)C(=O)O [2-[(S)-(S)-2-((R)-2-{(S)-2-[(R)-2-((S)-2-Acetylamino-3-carboxy-propionylamino)-4-(S)-carboxy-butyrylamino]-4-methyl-pentanoylamino}-3-methyl-pentanoylamino)-3-cyclohexyl-propionylamino]-4-mercapto-butyric acid],80000
2,CCCC[C@H](NC(=O)[C@H](CC1CCCCC1)NC(=O)[C@@H](NC(=O)[C@H](CC(C)C)NC(=O)[C@@H](CCC(=O)O)NC(=O)[C@H](CC(=O)O)NC(C)=O)[C@@H](C)CC)C(=O)O [2-[(S)-(S)-2-((R)-2-{(S)-2-[(R)-2-((S)-2-Acetylamino-3-carboxy-propionylamino)-4-(S)-carboxy-butyrylamino]-4-methyl-pentanoylamino}-3-methyl-pentanoylamino)-3-cyclohexyl-propionylamino]-hexanoic acid],2000
3,CCC[C@H](NC(=O)[C@H](CC1CCCCC1)NC(=O)[C@@H](NC(=O)[C@H](CC(C)C)NC(=O)[C@@H](CCC(=O)O)NC(=O)[C@H](CC(=O)O)NC(C)=O)[C@@H](C)CC)C(=O)O [(S)-2-[(S)-2-((R)-2-{(S)-2-[(R)-2-((S)-2-Acetylamino-3-carboxy-propionylamino)-4-(S)-carboxy-butyrylamino]-4-methyl-pentanoylamino}-3-methyl-pentanoylamino)-3-cyclohexyl-propionylamino]-pentanoic acid],130
4,CC[C@H](C)[C@H](NC(=O)[C@H](CC(C)C)NC(=O)[C@@H](CCC(=O)O)NC(=O)[C@H](CC(=O)O)NC(C)=O)C(=O)N[C@@H](CC1CCCCC1)C(=O)N[C@@H](CS)C(=O)O [(S)-4-((S)-2-Acetylamino-3-carboxy-propionylamino)-4-((R)-(S)-1-{1-[(R)-(R)-1-((S)-1-carboxy-2-mercapto-ethylcarbamoyl)-2-cyclohexyl-ethylcarbamoyl]-2-methyl-butylcarbamoyl}-3-methyl-butylcarbamoyl)-butyric acid],120

# Other lines, results leading:
row,Ki [nM],Structure (SMILES)
1,600,CC[C@H](NC(=O)[C@H](CC1CCCCC1)NC(=O)[C@@H](NC(=O)[C@H](CC(C)C)NC(=O)[C@@H](CCC(=O)O)NC(=O)[C@H](CC(=O)O)NC(C)=O)[C@@H](C)CC)C(=O)O [2-[(S)-(S)-2-((R)-2-{(S)-2-[(R)-2-((S)-2-Acetylamino-3-carboxy-propionylamino)-4-(S)-carboxy-butyrylamino]-4-methyl-pentanoylamino}-3-methyl-pentanoylamino)-3-cyclohexyl-propionylamino]-butyric acid]
2,5000,CCSC[C@H](NC(=O)[C@H](CC1CCCCC1)NC(=O)[C@@H](NC(=O)[C@H](CC(C)C)NC(=O)[C@@H](CCC(=O)O)NC(=O)[C@H](CC(=O)O)NC(C)=O)[C@@H](C)CC)C(=O)O [(S)-4-((S)-2-Acetylamino-3-carboxy-propionylamino)-4-((R)-(S)-1-{1-[(R)-(R)-1-((S)-1-carboxy-2-ethylsulfanyl-ethylcarbamoyl)-2-cyclohexyl-ethylcarbamoyl]-2-methyl-butylcarbamoyl}-3-methyl-butylcarbamoyl)-butyric acid]
3,500,CC[C@H](C)[C@H](NC(=O)[C@H](CC(C)C)NC(=O)[C@@H](CCC(=O)O)NC(=O)[C@H](CC(=O)O)NC(C)=O)C(=O)N[C@@H](CC1CCCCC1)C(=O)N[C@@H](CSC)C(=O)O [(S)-4-((S)-2-Acetylamino-3-carboxy-propionylamino)-4-((R)-(S)-1-{1-[(R)-(R)-1-((S)-1-carboxy-2-methylsulfanyl-ethylcarbamoyl)-2-cyclohexyl-ethylcarbamoyl]-2-methyl-butylcarbamoyl}-3-methyl-butylcarbamoyl)-butyric acid]
